# Laboratory results: ChEMBL document CHEMBL1201862, “PubChem BioAssay data set” (2004)
# Calls of active or inactive are those of the source.
# Legend:
# [1] = biological target: T1, G-protein coupled receptor 55 (Homo sapiens, UniProt Q9Y2T6); experiment: GPR55 antagonist potency of analogs, SAR follow-up, imaging, U2OS, beta-arrestin-GFP, LPI agonist, set 2 (AID 2820); format: functional
# A-375 = experiment: MITF: Counter assay: A375 proliferation Measured in Cell-Based System Using Plate Reader - 2084-03_Inhibitor_Dose_DryPowder_Activity. [Related pubchem assays (depositor defined):AID488944]; format: functional; settings: Homo sapiens
# Cannabinoid receptor 1 [2] = biological target: T2, Cannabinoid receptor 1 (Homo sapiens, UniProt P21554); experiment: SAR analysis of antagonists of the Cannabinoid Receptor 1 using an Image-Based Assay - Set 2. [Related pubchem assays (depositor defined):AID2013, AID2026]; format: functional
# T2 sequence (P21554 whole entry): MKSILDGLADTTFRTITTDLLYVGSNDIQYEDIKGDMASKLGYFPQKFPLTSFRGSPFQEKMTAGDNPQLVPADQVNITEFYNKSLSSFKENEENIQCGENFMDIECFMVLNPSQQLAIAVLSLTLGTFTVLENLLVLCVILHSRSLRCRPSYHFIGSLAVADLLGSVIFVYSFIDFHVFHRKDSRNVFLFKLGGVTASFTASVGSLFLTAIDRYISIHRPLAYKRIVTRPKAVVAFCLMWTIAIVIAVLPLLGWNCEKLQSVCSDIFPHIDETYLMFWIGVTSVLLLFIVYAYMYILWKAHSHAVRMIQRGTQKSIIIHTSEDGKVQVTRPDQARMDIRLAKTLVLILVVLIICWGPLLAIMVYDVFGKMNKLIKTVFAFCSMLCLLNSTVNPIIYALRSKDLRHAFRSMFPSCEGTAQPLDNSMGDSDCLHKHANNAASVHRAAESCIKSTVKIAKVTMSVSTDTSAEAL
# Cannabinoid receptor 2 [3] = biological target: T3, Cannabinoid receptor 2 (Homo sapiens, UniProt P34972); experiment: SAR analysis of antagonists of the Cannabinoid Receptor 2 using an Image-Based Assay. [Related pubchem assays (depositor defined):AID2013, AID2026]; format: functional
# T3 sequence (P34972 whole entry): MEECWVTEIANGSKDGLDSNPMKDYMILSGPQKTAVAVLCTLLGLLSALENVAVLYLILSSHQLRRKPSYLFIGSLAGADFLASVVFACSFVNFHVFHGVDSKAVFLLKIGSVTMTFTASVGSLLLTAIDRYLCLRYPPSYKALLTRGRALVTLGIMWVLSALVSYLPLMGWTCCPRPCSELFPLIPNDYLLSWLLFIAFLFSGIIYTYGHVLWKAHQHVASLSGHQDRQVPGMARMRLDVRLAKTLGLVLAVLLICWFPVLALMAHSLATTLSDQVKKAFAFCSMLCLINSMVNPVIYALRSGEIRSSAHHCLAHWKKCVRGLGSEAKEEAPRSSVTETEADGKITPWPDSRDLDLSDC
# [4] = biological target: T4, G-protein coupled receptor 35 (Homo sapiens, UniProt Q9HC97); experiment: SAR analysis of Agonists of the GPR35 Receptor using an Image-Based Assay - Set 2. [Related pubchem assays (depositor defined):AID2013, AID2026]; format: functional
# T4 sequence (Q9HC97 whole entry): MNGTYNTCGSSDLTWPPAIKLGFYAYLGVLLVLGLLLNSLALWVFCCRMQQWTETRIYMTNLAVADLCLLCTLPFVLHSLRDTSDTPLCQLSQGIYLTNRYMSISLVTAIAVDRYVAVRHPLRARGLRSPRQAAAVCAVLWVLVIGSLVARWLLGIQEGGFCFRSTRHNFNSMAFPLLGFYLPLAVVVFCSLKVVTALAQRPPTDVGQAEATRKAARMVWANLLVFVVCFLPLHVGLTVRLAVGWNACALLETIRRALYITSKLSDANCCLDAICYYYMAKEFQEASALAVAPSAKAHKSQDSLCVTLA
# Cannabinoid receptor 2 [5] = biological target: T3, Cannabinoid receptor 2; experiment: SAR analysis of agonists of the Cannabinoid Receptor 2 using an Image-Based Assay. [Related pubchem assays (depositor defined):AID2013, AID2026]; format: functional
# [6] = biological target: T5, Microphthalmia-associated transcription factor (Homo sapiens, UniProt O75030); experiment: TRPM1 promoter luciferase signal decrease, dose response, MITF inhibitor project, cell-based, SK-MEL-5, cherry-picked, set 3 (AID 493073); format: functional
# T5 sequence (O75030 whole entry): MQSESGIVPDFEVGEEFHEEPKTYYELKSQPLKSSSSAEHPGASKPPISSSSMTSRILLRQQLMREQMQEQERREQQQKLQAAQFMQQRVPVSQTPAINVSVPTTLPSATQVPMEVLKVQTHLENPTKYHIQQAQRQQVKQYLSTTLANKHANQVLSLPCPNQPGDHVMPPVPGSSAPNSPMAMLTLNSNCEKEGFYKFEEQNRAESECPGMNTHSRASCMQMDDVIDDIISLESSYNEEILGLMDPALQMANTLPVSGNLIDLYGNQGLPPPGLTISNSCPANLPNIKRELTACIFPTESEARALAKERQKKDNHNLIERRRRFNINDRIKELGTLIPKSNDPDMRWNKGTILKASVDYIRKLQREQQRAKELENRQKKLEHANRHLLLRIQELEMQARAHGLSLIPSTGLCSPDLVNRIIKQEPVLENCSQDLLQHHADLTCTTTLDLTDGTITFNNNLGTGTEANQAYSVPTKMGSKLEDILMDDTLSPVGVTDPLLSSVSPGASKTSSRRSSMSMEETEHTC
# [7] = biological target: T1, G-protein coupled receptor 55; experiment: GPR55 antagonists blocking LPI-driven arrestin recruitment, primary screen, imaging, U2OS, beta-arrestin-GFP, LPI agonist (AID 2013); format: functional;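 further: antagonist potency measured as reduced agonist-driven arrestin aggregation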
# [8] = biological target: T4, G-protein coupled receptor 35; experiment: SAR analysis of Antagonists of the GPR35 Receptor using an Image-Based Assay - Set 3. [Related pubchem assays (depositor defined):AID2013, AID2026]; format: functional
# Cannabinoid receptor 1 [9] = biological target: T2, Cannabinoid receptor 1; experiment: SAR analysis of agonists of the Cannabinoid Receptor 1 using an Image-Based Assay - Set 2. [Related pubchem assays (depositor defined):AID2013, AID2026]; format: functional
# [10] = biological target: Peroxisome proliferator-activated receptor gamma/Nuclear receptor coactivator 2 (Homo sapiens, UniProt P37231); experiment: (§1) TR-FRET dose response biochemical High Throughput Screening assay for agonists of the steroid receptor coactivator 2 (SRC-2) recruitment by the peroxisome proliferator-activated receptor gamma (PPAR gamma): non-selective agonists. [Related pubchem assays: 1297, 1032 ]; format: functional
# Chain of Peroxisome proliferator-activated receptor gamma/Nuclear receptor coactivator 2 (P37231 whole entry): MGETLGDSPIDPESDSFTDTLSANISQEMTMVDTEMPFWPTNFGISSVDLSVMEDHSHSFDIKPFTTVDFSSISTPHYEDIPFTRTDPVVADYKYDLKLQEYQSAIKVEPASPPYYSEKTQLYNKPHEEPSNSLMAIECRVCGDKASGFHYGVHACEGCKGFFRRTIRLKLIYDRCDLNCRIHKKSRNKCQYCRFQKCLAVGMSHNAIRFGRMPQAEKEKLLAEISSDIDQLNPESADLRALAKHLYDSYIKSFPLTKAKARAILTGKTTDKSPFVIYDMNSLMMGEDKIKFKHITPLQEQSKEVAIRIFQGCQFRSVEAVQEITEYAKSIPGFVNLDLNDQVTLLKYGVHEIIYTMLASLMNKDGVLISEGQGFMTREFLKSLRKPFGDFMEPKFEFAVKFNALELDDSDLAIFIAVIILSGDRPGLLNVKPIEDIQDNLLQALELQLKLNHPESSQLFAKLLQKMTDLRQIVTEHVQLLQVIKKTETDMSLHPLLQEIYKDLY
# Chain of Peroxisome proliferator-activated receptor gamma/Nuclear receptor coactivator 2 (Q15596 whole entry, further chain): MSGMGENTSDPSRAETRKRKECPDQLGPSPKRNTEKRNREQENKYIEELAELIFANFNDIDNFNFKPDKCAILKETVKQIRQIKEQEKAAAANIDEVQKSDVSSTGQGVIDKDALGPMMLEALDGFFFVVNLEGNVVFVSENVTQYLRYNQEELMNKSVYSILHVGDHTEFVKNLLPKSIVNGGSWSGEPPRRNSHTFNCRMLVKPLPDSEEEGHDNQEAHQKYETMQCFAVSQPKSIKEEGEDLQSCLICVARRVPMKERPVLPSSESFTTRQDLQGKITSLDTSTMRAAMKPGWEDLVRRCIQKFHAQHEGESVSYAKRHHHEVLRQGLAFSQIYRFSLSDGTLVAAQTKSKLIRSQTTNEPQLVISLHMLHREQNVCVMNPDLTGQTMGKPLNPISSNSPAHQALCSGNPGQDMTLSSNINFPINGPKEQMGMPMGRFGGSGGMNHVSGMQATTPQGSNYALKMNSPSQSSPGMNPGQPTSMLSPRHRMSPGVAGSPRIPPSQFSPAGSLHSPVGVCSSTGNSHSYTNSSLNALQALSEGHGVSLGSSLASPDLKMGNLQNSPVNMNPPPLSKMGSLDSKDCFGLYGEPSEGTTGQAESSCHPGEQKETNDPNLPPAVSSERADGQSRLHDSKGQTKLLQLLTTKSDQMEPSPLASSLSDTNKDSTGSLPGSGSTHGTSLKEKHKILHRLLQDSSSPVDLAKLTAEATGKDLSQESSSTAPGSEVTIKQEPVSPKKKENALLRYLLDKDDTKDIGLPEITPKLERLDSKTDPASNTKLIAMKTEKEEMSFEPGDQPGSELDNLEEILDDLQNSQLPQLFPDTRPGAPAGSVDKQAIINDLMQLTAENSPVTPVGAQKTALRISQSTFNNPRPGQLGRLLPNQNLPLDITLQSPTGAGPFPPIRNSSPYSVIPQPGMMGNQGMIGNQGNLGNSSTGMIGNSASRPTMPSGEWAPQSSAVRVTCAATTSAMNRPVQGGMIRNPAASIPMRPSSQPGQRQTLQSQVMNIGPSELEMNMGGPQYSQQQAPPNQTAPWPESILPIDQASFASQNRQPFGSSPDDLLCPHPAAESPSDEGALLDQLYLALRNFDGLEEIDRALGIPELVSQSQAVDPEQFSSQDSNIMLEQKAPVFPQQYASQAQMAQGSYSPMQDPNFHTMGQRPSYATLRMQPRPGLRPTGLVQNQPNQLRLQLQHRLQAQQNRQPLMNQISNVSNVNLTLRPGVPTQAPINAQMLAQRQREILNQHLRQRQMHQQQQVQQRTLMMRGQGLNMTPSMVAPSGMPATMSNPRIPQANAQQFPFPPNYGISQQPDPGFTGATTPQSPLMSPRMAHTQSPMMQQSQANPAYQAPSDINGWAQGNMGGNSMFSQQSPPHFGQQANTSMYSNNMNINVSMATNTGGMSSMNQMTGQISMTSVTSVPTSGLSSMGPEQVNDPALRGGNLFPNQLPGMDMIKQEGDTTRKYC
# [11] = biological target: Peroxisome proliferator-activated receptor gamma/Nuclear receptor coactivator 1 (Homo sapiens, UniProt P37231); experiment: as §1, with “1 (SRC-1)” for “2 (SRC-2)”, “assays (depositor defined):AID1300, AID1808, AID504735, AID631]” for “assays: 1297, 1032 ]”; format: protein assay
# [12] = biological target: Peroxisome proliferator-activated receptor gamma/Nuclear receptor coactivator 3 (Homo sapiens, UniProt P37231); experiment: as §1, with “3 (SRC-3)” for “2 (SRC-2)”, “1301 (Confirmation screen.), 1048 (Primary screen.)]” for “1297, 1032 ]”; format: functional
# [13] = biological target: T6, Alkaline phosphatase, tissue-nonspecific isozyme (Homo sapiens, UniProt P05186); experiment: TNAP enzyme inhibition by screening hits, dose response, selectivity assay for mouse IAP inhibitor project, biochemical, human TNAP, uHTS hits (AID 488906); format: functional
# T6 sequence (P05186 whole entry): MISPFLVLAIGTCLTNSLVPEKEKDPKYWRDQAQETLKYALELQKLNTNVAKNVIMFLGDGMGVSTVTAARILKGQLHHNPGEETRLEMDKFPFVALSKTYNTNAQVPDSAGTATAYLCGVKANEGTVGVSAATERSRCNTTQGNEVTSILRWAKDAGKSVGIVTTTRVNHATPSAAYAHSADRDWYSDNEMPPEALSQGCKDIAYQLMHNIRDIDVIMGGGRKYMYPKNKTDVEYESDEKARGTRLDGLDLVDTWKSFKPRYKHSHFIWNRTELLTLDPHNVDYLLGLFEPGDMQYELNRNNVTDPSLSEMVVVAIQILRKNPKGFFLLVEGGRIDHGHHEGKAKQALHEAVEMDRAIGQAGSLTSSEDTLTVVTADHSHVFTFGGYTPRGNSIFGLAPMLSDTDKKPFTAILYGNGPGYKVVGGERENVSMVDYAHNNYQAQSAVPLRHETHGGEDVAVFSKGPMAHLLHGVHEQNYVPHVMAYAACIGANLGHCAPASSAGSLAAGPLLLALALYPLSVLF
# [14] = biological target: Intestinal-type alkaline phosphatase (Mus musculus, UniProt P24822); experiment: PubChem AID 488785; format: functional
# Large T antigen = Large T antigen (Simian virus 40, UniProt P03070); format: functional, Betapolyomavirus macacae;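 further: Confirmatory-stage PubChem screen for compounds that inhibit SV40 T antigen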
# Chain of Large T antigen (P03070 whole entry): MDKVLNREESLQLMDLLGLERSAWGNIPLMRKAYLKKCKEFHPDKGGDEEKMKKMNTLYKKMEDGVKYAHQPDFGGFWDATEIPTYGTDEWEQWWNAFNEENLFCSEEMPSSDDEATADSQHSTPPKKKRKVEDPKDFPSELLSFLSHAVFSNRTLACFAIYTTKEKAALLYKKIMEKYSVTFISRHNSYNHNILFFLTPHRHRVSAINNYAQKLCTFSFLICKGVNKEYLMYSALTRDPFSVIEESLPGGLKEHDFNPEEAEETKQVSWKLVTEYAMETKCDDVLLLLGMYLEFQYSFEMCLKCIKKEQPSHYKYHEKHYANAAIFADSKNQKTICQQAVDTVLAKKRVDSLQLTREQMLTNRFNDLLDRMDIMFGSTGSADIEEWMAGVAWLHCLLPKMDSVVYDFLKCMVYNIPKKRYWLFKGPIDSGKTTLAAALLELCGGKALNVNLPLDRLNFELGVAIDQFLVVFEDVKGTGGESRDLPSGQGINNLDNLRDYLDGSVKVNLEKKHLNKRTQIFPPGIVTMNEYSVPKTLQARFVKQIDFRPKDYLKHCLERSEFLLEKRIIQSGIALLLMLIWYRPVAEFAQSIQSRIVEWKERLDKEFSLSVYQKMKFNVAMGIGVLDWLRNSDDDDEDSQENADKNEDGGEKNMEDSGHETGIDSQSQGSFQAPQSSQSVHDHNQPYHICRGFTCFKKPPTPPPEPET
# [15] = biological target: T7, Intestinal-type alkaline phosphatase (Homo sapiens, UniProt P09923); experiment: inhibition of human intestinal alkaline phosphatase – biochemical, dose response (AID 488876); format: functional
# T7 sequence (P09923 whole entry): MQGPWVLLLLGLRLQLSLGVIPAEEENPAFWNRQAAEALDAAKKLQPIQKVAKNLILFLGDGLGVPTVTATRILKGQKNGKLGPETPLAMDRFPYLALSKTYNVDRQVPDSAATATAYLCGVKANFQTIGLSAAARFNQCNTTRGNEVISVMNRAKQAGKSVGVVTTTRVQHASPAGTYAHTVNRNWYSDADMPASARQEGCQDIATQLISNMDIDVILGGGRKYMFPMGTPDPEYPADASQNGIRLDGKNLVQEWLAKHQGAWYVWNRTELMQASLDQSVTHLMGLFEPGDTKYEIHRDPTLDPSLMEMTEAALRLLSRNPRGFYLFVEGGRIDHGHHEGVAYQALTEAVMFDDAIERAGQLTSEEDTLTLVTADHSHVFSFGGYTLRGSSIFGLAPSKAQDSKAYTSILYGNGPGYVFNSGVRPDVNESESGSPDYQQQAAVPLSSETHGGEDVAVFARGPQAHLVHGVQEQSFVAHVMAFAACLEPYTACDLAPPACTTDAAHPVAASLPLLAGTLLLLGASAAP
# [16] = biological target: T8, Zinc finger protein mex-5 (Caenorhabditis elegans, UniProt Q9XUB2); experiment: MEX-5/TCR-2 RNA interaction inhibitors, dose response, biochemical, C. elegans, fluorescence polarization (AID 1960)
# T8 sequence (Q9XUB2 whole entry): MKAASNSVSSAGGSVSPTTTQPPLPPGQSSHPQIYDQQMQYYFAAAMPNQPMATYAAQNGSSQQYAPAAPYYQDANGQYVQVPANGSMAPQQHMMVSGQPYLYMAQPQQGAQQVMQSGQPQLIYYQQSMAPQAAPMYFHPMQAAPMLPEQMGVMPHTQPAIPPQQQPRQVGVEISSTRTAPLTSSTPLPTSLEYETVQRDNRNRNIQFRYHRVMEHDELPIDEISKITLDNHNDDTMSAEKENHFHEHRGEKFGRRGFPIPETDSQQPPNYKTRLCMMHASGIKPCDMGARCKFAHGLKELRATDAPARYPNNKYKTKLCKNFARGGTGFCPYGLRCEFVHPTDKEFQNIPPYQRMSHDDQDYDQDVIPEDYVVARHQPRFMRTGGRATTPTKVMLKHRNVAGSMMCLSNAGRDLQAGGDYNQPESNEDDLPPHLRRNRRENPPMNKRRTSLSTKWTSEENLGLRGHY
# [17] = biological target: T9, RNA-binding protein pos-1 (Caenorhabditis elegans, UniProt G5EF15); experiment: inhibitors of POS-1/mex-3 RNA binding, dose response, biochemical, fluorescence polarization (AID 1964);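 further: purified POS-1 fused to maltose binding protein made in E. coli; potency of compounds blocking POS-1 binding to fluorescent RNA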
# T9 sequence (G5EF15 whole entry): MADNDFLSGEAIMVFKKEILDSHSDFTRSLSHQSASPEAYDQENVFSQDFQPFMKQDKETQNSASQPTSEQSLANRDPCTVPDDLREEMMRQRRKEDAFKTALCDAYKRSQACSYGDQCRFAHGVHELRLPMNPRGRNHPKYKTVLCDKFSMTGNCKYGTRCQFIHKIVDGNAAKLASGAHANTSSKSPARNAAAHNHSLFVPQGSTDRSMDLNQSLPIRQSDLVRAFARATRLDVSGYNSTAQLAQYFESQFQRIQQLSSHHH
# [18] = biological target: Hepatocyte nuclear factor 4-alpha (Homo sapiens, UniProt P41235); format: functional, cell-based;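 further: biochemical luminescence-based dose-response counterscreen measuring inhibition of HNF4 dimerization, run alongside a screen for blockers of ABHD5–perilipin-5 interaction; split luciferase complementation of HNF4 fusion proteins in cell lysate measuring dimerization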
# Cytochrome P450 2C19 = Cytochrome P450 2C19 (Homo sapiens, UniProt P33261); experiment: Cytochrome panel assay with activity outcomes. Panel member name: p450-cyp2c19 Compounds with AC50 equal or less than 10 uM are considered active; format: functional
# Cytochrome P450 1A2 = biological target: T10, Cytochrome P450 1A2 (Homo sapiens, UniProt P05177);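 further: PubChem cytochrome P450 panel assay, CYP1A2 panel member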
# T10 sequence (P05177 whole entry): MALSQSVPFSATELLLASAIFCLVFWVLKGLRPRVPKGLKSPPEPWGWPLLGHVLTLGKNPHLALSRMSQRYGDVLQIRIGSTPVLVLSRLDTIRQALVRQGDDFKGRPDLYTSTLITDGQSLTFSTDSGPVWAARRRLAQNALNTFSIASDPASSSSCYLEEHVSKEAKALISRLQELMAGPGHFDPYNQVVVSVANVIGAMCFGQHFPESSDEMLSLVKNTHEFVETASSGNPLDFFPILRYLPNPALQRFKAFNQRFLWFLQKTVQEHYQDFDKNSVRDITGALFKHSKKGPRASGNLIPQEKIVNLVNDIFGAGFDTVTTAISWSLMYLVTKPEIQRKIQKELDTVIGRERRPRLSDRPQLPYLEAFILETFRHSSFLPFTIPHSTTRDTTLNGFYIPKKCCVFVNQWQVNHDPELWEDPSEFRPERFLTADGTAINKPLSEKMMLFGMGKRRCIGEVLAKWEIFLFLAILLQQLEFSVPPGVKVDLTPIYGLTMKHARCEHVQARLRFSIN
# Cytochrome P450 2D6 = Cytochrome P450 2D6 (Homo sapiens, UniProt P10635);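 further: CYP2D6 member of a cytochrome P450 panel assay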
# [19] = biological target: T7, Intestinal-type alkaline phosphatase; experiment: human intestinal alkaline phosphatase activators, dose response, biochemical, luminescence, uHTS hits (AID 463120); format: functional
# Cannabinoid receptor 1 [20] = biological target: T2, Cannabinoid receptor 1; experiment: SAR analysis of antagonists of the Cannabinoid Receptor 1 using an Image-Based Assay - Set 4. [Related pubchem assays (depositor defined):AID2013, AID2026]; format: functional
# Cannabinoid receptor 2 [21] = biological target: T3, Cannabinoid receptor 2; experiment: SAR analysis of agonists of the Cannabinoid Receptor 2 using an Image-Based Assay - Set 3. [Related pubchem assays (depositor defined):AID2013, AID2026]; format: functional
# Cannabinoid receptor 1 [22] = biological target: T2, Cannabinoid receptor 1; experiment: SAR analysis of agonists of the Cannabinoid Receptor 1 using an Image-Based Assay - Set 4. [Related pubchem assays (depositor defined):AID2013, AID2026]; format: functional
# [23] = biological target: T1, G-protein coupled receptor 55; experiment: SAR Analysis of Selective Antagonists of GPR55 using an Image-Based Assay - Set 4. [Related pubchem assays (depositor defined):AID2013, AID2026]; format: functional
# [24] = biological target: T4, G-protein coupled receptor 35; experiment: SAR analysis of Antagonists of the GPR35 Receptor using an Image-Based Assay - Set 6. [Related pubchem assays (depositor defined):AID2013, AID2026]; format: functional
# Cannabinoid receptor 2 [25] = biological target: T3, Cannabinoid receptor 2; experiment: SAR analysis of antagonists of the Cannabinoid Receptor 2 using an Image-Based Assay - Set 3. [Related pubchem assays (depositor defined):AID2013, AID2026]; format: functional
# [26] = biological target: T4, G-protein coupled receptor 35; experiment: SAR analysis of Agonists of the GPR35 Receptor using an Image-Based Assay - Set 4. [Related pubchem assays (depositor defined):AID2013, AID2026]; format: functional
# [27] = biological target: Voltage-dependent T-type calcium channel subunit alpha-1H (Homo sapiens, UniProt O95180); experiment: Cav3.2 T-type channel inhibitors, synthesized analogs, SAR follow-up, cell-based, synthetic library set 2, HEK293 HH8, Fluo-4 (AID 493023); format: functional
# T1 sequence (Q9Y2T6 whole entry): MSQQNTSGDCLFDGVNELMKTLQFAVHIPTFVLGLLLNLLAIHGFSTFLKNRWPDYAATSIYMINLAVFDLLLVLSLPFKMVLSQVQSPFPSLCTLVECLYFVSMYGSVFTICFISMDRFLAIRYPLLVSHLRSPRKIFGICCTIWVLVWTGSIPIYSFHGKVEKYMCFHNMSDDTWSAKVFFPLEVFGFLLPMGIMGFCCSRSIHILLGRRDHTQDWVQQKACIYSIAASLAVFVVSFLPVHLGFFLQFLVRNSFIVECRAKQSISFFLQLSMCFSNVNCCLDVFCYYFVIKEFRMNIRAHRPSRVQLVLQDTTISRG
smiles,measurement,setting,value
COc1ccc(CNCCC(c2ccc(F)cc2)c2ccc(OC)cc2)cc1 (configuration not stated),IC50,[1],1.69 µM (active)
same,AC50,A-375,16.3 µM (active)
same,IC50,Cannabinoid receptor 1 [2],2.7 µM (active)
same,IC50,Cannabinoid receptor 2 [3],24.2 µM (inactive)
same,EC50,[4],23.1 µM (inactive)
same,EC50,Cannabinoid receptor 2 [5],> 32 µM (inactive)
same,AC50,[6],9.89 µM (active)
same,IC50,[7],1.78 µM (active)
same,IC50,[8],> 32 µM (inactive)
same,EC50,Cannabinoid receptor 1 [9],> 32 µM (inactive)
COc1ccc2c(c1)nc(SCC(=O)c1ccc(Br)s1)n2C,EC50,[10],27.7 µM (not active)
same,EC50,[11],> 79.4 µM (inactive)
same,EC50,[12],> 79.4 µM (not active)
CN1C(=O)/C(=C/C=C/c2ccco2)C(=O)NC1=S,IC50,[13],23.5 µM (active)
same,IC50,[14],11.8 µM (active)
same,IC50,Large T antigen,11.9 µM (active)
same,IC50,[15],9.58 µM (active)
same,EC50,[16],37.5 µM (active)
same,EC50,[17],33.5 µM (active)
same,IC50,[18],2.56 µM (active)
COc1ccc(C(=O)Nc2cccc3c2C(=O)NC3=O)cc1S(=O)(=O)N1CCOCC1,AC50,Cytochrome P450 2C19,inconclusive
same,AC50,Cytochrome P450 1A2,1 µM (inconclusive)
same,AC50,Cytochrome P450 2D6,inconclusive
same,EC50,[19],> 100 µM (inactive)
Cc1ccc(-c2nnc(C)c3nn(-c4ccc(C)cc4)cc23)cc1,IC50,Cannabinoid receptor 1 [20],2.59 µM (active)
same,EC50,Cannabinoid receptor 2 [21],> 32 µM (inactive)
same,EC50,Cannabinoid receptor 1 [22],> 32 µM (inactive)
same,IC50,[23],> 32 µM (inactive)
same,IC50,[24],15.4 µM (inactive)
same,IC50,Cannabinoid receptor 2 [25],> 18 µM (inactive)
same,EC50,[26],> 32 µM (inactive)
CC(C)(C)CCN1CCC[C@@H](NC(=O)c2cc(Cl)cc(Cl)c2)C1,EC50,[27],10 µM (active)
